In patent publication US20120003156A1, “METHODS FOR TREATING NEOPLASIA BY INHIBITING LACTATE DEHYDROGENASE AND/OR NICOTINAMIDE PHOSPHORIBOSYLTRANSFERASE” (The Johns Hopkins University, priority 2008, published 2012):
“Also recorded” adds a separate entry of the source.

Assays:
LDH = LDH (Homo sapiens, UniProt P00338); assay: LDH activity, decrease in absorbance at 340 nm of NADH; type: biochemical
Experimental: In other studies, pyruvate and NADH were used as the substrates to test the inhibition of LDH by FX11. […] To further document the selective binding of FX11 versus E to LDHA, affinity chromatography was performed with P493 cell lysate using FX11 or E immobilized on Sepharose beads. […] GAPDH is another pivotal glycolytic enzyme that converts NAD^+ to NADH. The question of whether FX11 could inhibit its NAD^+-dependent conversion of glyceraldehyde-3-phosphate to bis-phosphoglycerate was addressed.

LDHA [1] = biological target: T1, LDHA (Homo sapiens, UniProt P00338); assay: Affinity chromatography of LDHA on Sepharose-immobilized FX11 or E; type: binding; conditions: P493 cell lysate; elution with 1 mM NADH
Experimental: FX11 and E molecules which contain carboxyl groups were coupled to immobilized diaminodipropylamine (DADPA) resins according to the manufacturer's instructions (Pierce). […] An equal amount of cell lysate was loaded onto these beads and eluted with 1 mM NADH after washing with 6 column volumes of high salt (1 M NaCl). LDHA activity was performed from the eluates to assess the binding affinity of the molecules with LDHA.

GAPDH = GAPDH (Homo sapiens, UniProt P04406); assay: GAPDH activity and Ki; type: biochemical
Chain of GAPDH (P04406 whole entry): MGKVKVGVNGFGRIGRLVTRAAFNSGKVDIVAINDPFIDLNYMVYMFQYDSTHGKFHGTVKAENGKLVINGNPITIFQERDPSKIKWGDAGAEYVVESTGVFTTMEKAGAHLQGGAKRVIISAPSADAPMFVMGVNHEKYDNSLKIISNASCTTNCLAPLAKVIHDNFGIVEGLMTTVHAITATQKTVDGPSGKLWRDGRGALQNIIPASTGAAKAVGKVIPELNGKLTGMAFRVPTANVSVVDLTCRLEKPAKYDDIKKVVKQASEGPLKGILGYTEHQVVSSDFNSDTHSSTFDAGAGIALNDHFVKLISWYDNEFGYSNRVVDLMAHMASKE
Experimental: (§1) The reaction velocity of purified human LDHA or GAPDH was determined by a decrease or increase in absorbance at 340 nm of NADH, respectively. […] The GADPH activity was assessed using the protocol described in Worthington Enzyme Manual: http://www.worthington-biochem.com/GAPD/assay.html with varying concentrations of NAD^+. Ki values were determined from double-reciprocal plots by linear regression analysis using SigmaPlot Enzyme Kinetic software.

P493 cells [2] = assay: ROS measurement by DCFDA flow cytometry; type: cell-based, human; conditions: 9 μM FX11 or FK866, 24 hours
Experimental: The measurement of intracellular ROS production was measured by staining cells with 5-(and-6)-carboxy-2′,7′-dichlorodihydrofluorescein diacetate (carboxy-H2DCFDA; Molecular Probes) according to the manufacturer's instructions. 10^5 cells/ml were treated with 9 μM FX11 or FK866 for 24 hours. Stained cells were analyzed in FACScan flow cytometers (BD Bioscience).

P493 cells [3] = assay: Mitochondrial membrane potential by JC-1 flow cytometry; type: cell-based, human; conditions: 9 μM FX11 or/and FK866, 24 hours
From the text: The lipophilic cation dye (5,5′,6,6′-tetrachloro-1,1′,3,3′-tetraethylbenzimidazolcarbocyanine iodide, JC-1) (Invitrogen) was used to detect the loss of the mitochondrial membrane potential. The negative charge established by the intact mitochondrial membrane potential lets the lipophilic dye stain the mitochondria bright red which emits in channel 2 (FL2). When the mitochondrial membrane potential collapses, JC-1 remains in the cytoplasm in a green fluorescent monomeric emission in channel 1 (FL1). JC-1 reversibly changes its color from green to orange as membrane potentials increase (over values of 80-100 mV). 10^5 cells/ml were treated with 9 μM FX11 or/and FK866 for 24 hours. Stained cells were analyzed in FACScan flow cytometers (BD Bioscience).

P493 cells [4] = assay: Conversion of 13C-glucose to 13C-lactate; type: cell-based, human
Experimental: In addition to oxidative stress induced by inhibition of LDHA, it was determined how FX11 affects cellular energy metabolism. […].

c-Myc = assay: Western blot of c-Myc; type: cell-based, human; conditions: 30 μM FX11, 24 hours
[5] = tested on: P198 human pancreatic cancer cells; assay: Cell population growth; type: cell-based; conditions: 1% O2 vs normoxia
Experimental: P493 human lymphoma B cells were maintained in RPMI 1640 with 10% fetal bovine serum (FBS) and 1% penicillin-streptomycin. P198 human pancreatic cancer cells; RCC4, RCC4-VHL human renal carcinoma cells; MCF-7 and MDA-MB-453 breast cancer cells were maintained in high glucose (4.5 mg/ml) DMEM with 10% FBS and 1% penicillin-streptomycin. Non-hypoxic cells (20% O2) were maintained at 37° C. in a 5% CO2, 95% in an air incubator. Hypoxic cells (1% O2) were maintained in a controlled atmosphere chamber (PLAS-LABS, Lansing, Mich.) with a gas mixture containing 1% O2, 5% CO2, and 94% N2 at 37° C. for the indicated time. Bright live cells were counted daily in a hemacytometer using trypan blue dye to exclude dead cells. All cells were grown at a concentration of 10^5 cells/ml. All drugs treatment began at day 0.
siRNAs targeting human LDHA (ON-TARGETplus SMARTpool) were purchased from Dharmacon Research Inc. Targeting sequences for LDHA were a pool of the following four target sequences: sequence 1, […]; sequence 2, […]; sequence 3, […]; sequence 4, […]. Accordingly, one of skill in the art would recognize the siRNA sequences corresponding to these targets. For P493 human lymphoma B cells, transfection of siRNAs was performed using an Amaxa Nucleotransfection device according to the manufacturer's instructions. […]

[6] = tested on: human pancreatic cell line E3LZ10.7; assay: Cell growth; type: cell-based
[7] = tested on: human pancreatic cell line P10; assay: Cell growth; type: cell-based
[8] = tested on: human glioblastoma U-87-MG cells; assay: Cell growth; type: cell-based
[9] = Expected initial serum level after IP injection; type: in vivo; conditions: 42 μg IP; assuming uniform and immediate distribution in the vascular system
Experimental: Although the renewed interest in the Warburg effect is accompanied by a greater understanding of its molecular underpinnings, targeting it for therapeutic purposes has become a major challenge. […] Of note, primary human lymphomas have been documented to have elevated LDHA expression particularly in hypoxic regions. […] A desired FX11 dose of 42 μg for daily intraperitoneal (IP) injection was calculated. An initial serum level of ˜100 μM was expected, assuming a uniform and immediate distribution in the vascular system without accounting for the drug half-life or drug metabolism.

LDHA [10] = biological target: T1, LDHA; conditions: cited from earlier work
[11] = biological target: purified human liver LDHA (Homo sapiens, UniProt P00338); assay: Determination of Ki and enzyme kinetics of LDHA; conditions: NADH as substrate; Lineweaver-Burk plots
Experimental: as §1

For `CCCc1c(O)c(O)c(C(=O)O)c2cc(Cc3ccccc3)c(C)cc12` [FX11, 2,3-dihydroxy-6-methyl-7-(phenylmethyl)-4-propylnaphthalene-1-carboxylic acid], the “slope of decrease in absorbance at 340 nm” value (LDH; 6 μM FX11, −0.084 without FX11) was −0.029, the LDH activity (LDH; 6 μM, pyruvate and NADH as substrates) was “completely abrogated” and the “concentration inhibiting LDH activity in the conversion of lactate to pyruvate” value (LDH; lactate to pyruvate direction) was 34 µM. The “LDHA activity eluted from affinity beads relative to beads with immobilized E” value (LDHA [1]) was 4 fold, the GAPDH activity (GAPDH; 74 μM) was “not inhibited” and the Ki (GAPDH; GAPDH, Michaelis-Menten kinetics, estimated) was over 300 µM. The ROS production (P493 cells [2]) was “increased”, the mitochondrial membrane potential (P493 cells [3]) was “decreased” and the 13C-glutamate (P493 cells [4]) was “increase”. The “conversion of 13C-glucose to 13C-lactate” value (P493 cells [4]) was “reduced”, the c-Myc levels (c-Myc) was “does not affect c-Myc levels” and the “effect of hypoxia on inhibition of P198 cells by FX11” value [5] was “sensitized”. For the same compound, the growth inhibition [6] was “dose-dependent manner”, the growth inhibition [7] was “dose-dependent manner” and the growth inhibition [8] was “dose-dependent manner”. The initial serum level [9] was about 100 µM, the “selectivity LDHA versus LDHB or pLDH” value (LDHA [10]) was “preferentially inhibited LDHA as opposed to LDHB or pLDH” and the “mode of inhibition of LDHA” value [11] was “competitive inhibitors; also recorded: competitive inhibitor of NADH”.
